Source: ChEMBL document CHEMBL4765457, “Targeting dual tolerant regions of binding pocket: Discovery of novel morpholine-substituted diarylpyrimidines as potent HIV-1 NNRTIs with significantly improved water solubility” (Eur J Med Chem, 2020)

Key:
[1] = system: Human immunodeficiency virus 1; test: Antiviral activity against HIV1 harboring RT Y188L mutant infected in human MT4 cells assessed as inhibition of virus-induced cytopathic effect incubated for 5 days by MTT assay; type: functional, organism-based; settings: Human immunodeficiency virus 1, MT4, 120 h
[2] = Resistance index, ratio of EC50 for antiviral activity against HIV1 expressing RT E138K mutant infected in human MT4 cells to EC50 for antiviral activity against HIV1 3B infected in human MT4 cells; type: functional
[3] = Resistance index, ratio of EC50 for antiviral activity against HIV1 expressing RT F227L/V106A mutant infected in human MT4 cells to EC50 for antiviral activity against HIV1 3B infected in human MT4 cells; type: functional
[4] = system: Human immunodeficiency virus 1; test: Antiviral activity against HIV1 harboring RT E138K mutant infected in human MT4 cells assessed as inhibition of virus-induced cytopathic effect incubated for 5 days by MTT assay; type: functional, organism-based; settings: Human immunodeficiency virus 1, MT4, 120 h
[5] = system: Human immunodeficiency virus 1; test: Antiviral activity against HIV1 harboring RT L100I mutant infected in human MT4 cells assessed as inhibition of virus-induced cytopathic effect incubated for 5 days by MTT assay; type: functional, organism-based; settings: Human immunodeficiency virus 1, MT4, 120 h
[6] = system: Human immunodeficiency virus 1; test: Antiviral activity against HIV1 harboring RT K103N mutant infected in human MT4 cells assessed as inhibition of virus-induced cytopathic effect incubated for 5 days by MTT assay; type: functional, organism-based; settings: Human immunodeficiency virus 1, MT4, 120 h
[7] = system: Human immunodeficiency virus 1; test: Antiviral activity against HIV1 harboring RT Y181C mutant infected in human MT4 cells assessed as inhibition of virus-induced cytopathic effect incubated for 5 days by MTT assay; type: functional, organism-based; settings: Human immunodeficiency virus 1, MT4, 120 h
[8] = Selectivity index, ratio of CC50 for human MT4 cells to EC50 for antiviral activity against HIV1 3B infected in human MT4 cells; type: toxicity, cell-based; settings: read-out: Ratio CC50/EC50
[9] = Resistance index, ratio of EC50 for antiviral activity against HIV1 expressing RT Y181C mutant infected in human MT4 cells to EC50 for antiviral activity against HIV1 3B infected in human MT4 cells; type: functional
[10] = system: Human immunodeficiency virus 1; test: Antiviral activity against HIV1 RES056 infected in human MT4 cells assessed as inhibition of virus-induced cytopathic effect incubated for 5 days by MTT assay; type: functional, organism-based; settings: Human immunodeficiency virus 1, RES056, MT4, 120 h
[11] = Resistance index, ratio of EC50 for antiviral activity against HIV1 expressing RT L100I mutant infected in human MT4 cells to EC50 for antiviral activity against HIV1 3B infected in human MT4 cells; type: functional
[12] = system: Human immunodeficiency virus 1; test: Antiviral activity against HIV1 harboring RT F227L/V106Amutant infected in human MT4 cells assessed as inhibition of virus-induced cytopathic effect incubated for 5 days by MTT assay; type: functional, organism-based; settings: Human immunodeficiency virus 1, MT4, 120 h
[13] = Resistance index, ratio of EC50 for antiviral activity against HIV1 expressing RT K103N mutant infected in human MT4 cells to EC50 for antiviral activity against HIV1 3B infected in human MT4 cells; type: functional
[14] = Cytotoxicity against human MT4 cells assessed as reduction in cell viability incubated for 5 days by MTT assay; type: cell-based; settings: time 5 day
[15] = Resistance index, ratio of EC50 for antiviral activity against HIV1 expressing RT Y188L mutant infected in human MT4 cells to EC50 for antiviral activity against HIV1 3B infected in human MT4 cells; type: functional
[16] = system: Human immunodeficiency virus 1; test: Antiviral activity against HIV1 3B infected in human MT4 cells assessed as virus-induced cytopathic effect incubated for 5 days by MTT assay; type: functional, organism-based; settings: Human immunodeficiency virus 1, 3B, MT4, 120 h
[17] = Selectivity index, ratio of CC50 for human MT4 cells to EC50 for antiviral activity against HIV1 RES056 infected in human MT4 cells; type: toxicity, cell-based; settings: read-out: Ratio CC50/EC50

Row | Structure (SMILES) | EC50 [1] | Ratio EC50 [2] | Ratio EC50 [3] | EC50 [4] | EC50 [5] | EC50 [6] | EC50 [7] | selectivity ratio [8] | Ratio EC50 [9] | EC50 [10] | Ratio EC50 [11] | EC50 [12] | Ratio EC50 [13] | CC50 at 120 h [14] | Ratio EC50 [15] | EC50 [16] | selectivity ratio [17]
1 | Cc1ccnc2c1NC(=O)c1cccnc1N2C1CC1 [NEVIRAPINE] | ≥ 7.7 µM | 1.2 | >=32.9 | 0.191 µM | 1.03 µM | 5.1 µM | 6.69 µM | > 92 | 40.7 | > 15 µM | 6.3 | ≥ 5.41 µM | 31.1 | > 15 µM | >=46.9 |  | 
2 | COc1cc2nc(NC3CCN(CCN4CCOCC4)CC3)nc(Oc3c(C)cc(C#N)cc3C)c2cc1OC |  |  |  |  |  |  |  | 68 |  | > 121 µM |  |  |  | 121 µM |  | 1.79 µM | < 1
3 | O=C1Nc2ccc(Cl)cc2[C@@](C#CC2CC2)(C(F)(F)F)O1 [EFAVIRENZ] |  |  |  |  | 0.04 µM | 0.094 µM | 0.006 µM |  |  |  |  |  |  | > 6.34 µM |  |  | 
4 | Cc1cc(C#N)cc(C)c1Oc1nc(NC2CCN(CC(=O)N3CCOCC3)CC2)nc2ccccc12 |  |  |  |  |  |  |  | 71 |  | > 42.6 µM |  |  |  | 42.6 µM |  | 0.597 µM | < 1
5 | Nc1ccn([C@@H]2CS[C@H](CO)O2)c(=O)n1 [LAMIVUDINE] | 3.36 µM | 1.3 | 0.6 | 6.64 µM | 1.62 µM | 3.75 µM | 4.79 µM | > 17 | 1 | 8.35 µM | 0.3 | 2.77 µM | 0.7 | > 87.2 µM | 0.7 | 5.02 µM | > 10
6 | Cc1cc(C#N)cc(C)c1Oc1nc(NC2CCN(CC(=O)N3CCOCC3)CC2)nc2c1COC2 |  |  |  |  |  |  |  | 1240 |  | > 184 µM |  |  |  | 184 µM |  | 0.149 µM | < 1
7 | Cc1cc(C#N)cc(C)c1Oc1nc(NC2CCN(CCN3CCOCC3)CC2)nc2ccoc12 |  |  |  |  |  |  |  | 125 |  | > 138 µM |  |  |  | 138 µM |  | 1.1 µM | < 1
8 | Cc1cc(C#N)cc(C)c1Oc1nc(NC2CCN(CC(=O)N3CCOCC3)CC2)nc2c1CSC2 | 7.45 µM | 4.1 | 267.3 | 0.627 µM | 24.4 µM | 3.73 µM | 13.4 µM | 420 | 86.9 | > 64.6 µM | 158.7 | 41.2 µM | 24.2 | 64.6 µM | 48.4 | 0.154 µM | < 1
9 | Cc1cc(C#N)cc(C)c1Oc1nc(NC2CCN(CC(=O)N3CCOCC3)CC2)nc2ccsc12 | 4.92 µM | 1.7 | >=178.1 | 0.171 µM | 5.17 µM | 1.38 µM | 5.27 µM | 416 | 52.4 | > 41.9 µM | 51.4 | ≥ 17.9 µM | 13.7 | 41.9 µM | 48.8 | 0.101 µM | < 1
10 | Cc1cc(C#N)cc(C)c1Oc1nc(NC2CCN(CCN3CCOCC3)CC2)nc2scnc12 |  |  |  |  |  |  |  | 305 |  | > 88.6 µM |  |  |  | 88.6 µM |  | 0.291 µM | < 1
11 | Cc1cc(C#N)cc(C)c1Oc1nc(NC2CCN(CCN3CCOCC3)CC2)nc2c1SCC2 |  |  |  |  |  |  |  | 376 |  | > 43 µM |  |  |  | 43 µM |  | 0.114 µM | < 1
12 | Cc1cc(C#N)cc(C)c1Oc1ccnc(NC2CCN(CCN3CCOCC3)CC2)n1 |  |  |  |  |  |  |  | 219 |  | > 246 µM |  |  |  | 246 µM |  | 1.12 µM | < 1
13 | COc1cc2nc(NC3CCN(CC(=O)N4CCOCC4)CC3)nc(Oc3c(C)cc(C#N)cc3C)c2cc1OC | > 211 µM | >96.8 | 0.4 | > 211 µM | > 211 µM | 24.8 µM | > 211 µM | 97 | >96.8 | > 211 µM | >96.8 | 0.974 µM | 11.4 | 211 µM | >96.8 | 2.18 µM | < 1
14 | Cc1cc(C#N)cc(C)c1Oc1nc(NC2CCN(CCN3CCOCC3)CC2)nc2c1CCC2 |  |  |  |  |  |  |  | 261 |  | > 49.1 µM |  |  |  | 49.1 µM |  | 0.188 µM | < 1
15 | Cc1cc(C#N)cc(C)c1Oc1nc(NC2CCN(CCN3CCOCC3)CC2)nc2c1COC2 |  |  |  |  |  |  |  | 383 |  | > 140 µM |  |  |  | 140 µM |  | 0.366 µM | < 1
16 | Cc1cc(C#N)cc(C)c1Oc1nc(NC2CCN(CC(=O)N3CCOCC3)CC2)nc2scnc12 | 12.1 µM | 5 | 256.1 | 0.703 µM | 15.1 µM | 3.74 µM | 3.06 µM | 919 | 21.8 | > 129 µM | 107.7 | 35.9 µM | 26.7 | 129 µM | 86 | 0.14 µM | < 1
17 | Cc1cc(C#N)cc(C)c1Oc1nc(NC2CCN(CC(=O)N3CCOCC3)CC2)nc2cc(F)ccc12 |  |  |  |  |  |  |  | 71 |  | > 16.4 µM |  |  |  | 41.1 µM |  | 0.577 µM | < 2.51
18 | Cc1cc(C#N)cc(C)c1Oc1ccnc(NC2CCN(CC(=O)N3CCOCC3)CC2)n1 |  |  |  |  |  |  |  | 1020 |  | > 143 µM |  |  |  | 143 µM |  | 0.141 µM | < 1
19 | Cc1cc(C#N)cc(C)c1Oc1nc(NC2CCN(CC(=O)N3CCOCC3)CC2)nc2ccoc12 |  |  |  |  |  |  |  | 383 |  | > 125 µM |  |  |  | 125 µM |  | 0.327 µM | < 1
20 | Cc1cc(C#N)cc(C)c1Oc1nc(NC2CCN(CC(=O)N3CCOCC3)CC2)nc2c1CCC2 | 6.48 µM | 10.6 | 256 | 1.12 µM | 15.9 µM | 2.54 µM | 10.6 µM | 696 | 100.8 | > 73.5 µM | 150.4 | 27 µM | 24.1 | 73.5 µM | 61.4 | 0.106 µM | < 1
21 | Cc1cc(C#N)cc(C)c1Oc1nc(NC2CCN(Cc3ccc(S(N)(=O)=O)cc3)CC2)nc2ccsc12 |  | 2 | 3 |  |  |  |  |  | 2.3 |  | 2.4 | 0.0042 µM | 2 |  | 2.1 |  | 
22 | Cc1cc(C#N)cc(C)c1Oc1nc(NC2CCN(CCN3CCOCC3)CC2)nc2ccccc12 |  |  |  |  |  |  |  | 52 |  | > 26 µM |  |  |  | 26 µM |  | 0.502 µM | < 1
23 | Cc1cn([C@H]2C[C@H](N=[N+]=[N-])[C@@H](CO)O2)c(=O)[nH]c1=O [ZIDOVUDINE] | 0.009 µM | 1.4 | 0.5 | 0.027 µM | 0.006 µM |  | 0.016 µM | > 397 | 0.9 | 0.024 µM | 0.3 | 0.009 µM | 1 | > 7.48 µM | 0.5 | 0.019 µM | > 311
24 | Cc1cc(C#N)cc(C)c1Oc1nc(NC2CCN(CCN3CCOCC3)CC2)nc2c1CSC2 | 13.8 µM | 6.8 | 68.4 | 1.18 µM | 16.6 µM | 1.96 µM | 13.2 µM | 164 | 76.2 | > 28.5 µM | 95.6 | 11.8 µM | 11.3 | 28.5 µM | 79.7 | 0.173 µM | < 1
